Each structure is given as a SMILES string.

One compound from US20250382346A1, “NEURONAL PROMOTERS AND USES THEREOF” (priority 2023, published 2025) can be followed below.

In this assay the test system is hM3Dq or rM3Ds. The assay is described as follows: Locomotion test in macaques after nigral DREADD AAV and CNO. The class given is in vivo. The protocol: To guide the virus injection in SNr, a guide grid of multiple holes spaced by 1 mm was installed on each subject vertically above the SN. By filling vitamin E in these holes, the accurate coordinates for injection could be obtained from the T1-weighted MRI images (3T Tim Trio scanner, Siemens). Virus injections were performed in nine sites covering the whole SNr, and a total volume of 27 μL virus was unilaterally injected in the right SNr at the speed of 300 nL/min.
To intracranially administrate drug and/or perform electrophysiological recording, a recording chamber covering from anterior caudate to posterior GPi was fixed on the skull with 6 titanium screws and dental cement. Each subject was allowed to recover from the surgery for at least 6 weeks prior to further studies.
Locomotion Test: The locomotion tests for monkeys were conducted in a custom-made observation cage (100 cm×100 cm×100 cm). The top and front of the cage were made of toughened glass in order to gain a clear view for behavioral recording. Monkeys were habituated to the observation cage by placing them inside for 30 minutes on three separate days.
For monkeys injected with AAV8R12-G88P3-HA-hM3Dq, CNO was intracranially infused into the dorsomedial caudate through the recording chamber. To infuse while the animal was awake, the monkey was trained to sit in a primate chair specially designed with its head fixed to the primate chair by a mask made of thermoplastic materials. Injections were conducted through a 33-Gauge needle connected to a 250 μL syringe via a polyethylene pipe (Hamilton, Neuros). […] The needle was held for 5 minutes for drug diffusion before retraction. For monkeys injected with AAV8R12-G88P7-rM3Ds-2A-EYFP, CNO was infused via intramuscular injection (10 mg/kg). […] Videos capturing the subjects' behavior were recorded for at least 90 minutes. Animal behaviors from 30-90 minutes after saline/CNO infusion were further analyzed and quantified.
For rotation analysis, only movements that occurred lower than 30 cm on the z-axis were counted. To determine the direction of the rotation, we first computed the center for the rotation data in the x-y plane as (x0, y0) by averaging all data points, and then we computed the angle relative to (x0, y0) for each time point by the following formula:
where θi represents the rotating angle at time i, and (xi, yi) represents the x-y coordinate at time i. We then calculated the change of rotating angle as Δθi=θi−θi−1. For right nigral injections, when Δθ<0, the direction of the rotation was anticlockwise and was labeled as a contraversive rotation. When Δθ>0, the direction of the rotation was clockwise and was labeled as an ipsiversive rotation. The raw data were analyzed and plotted through a custom R package. Code is available on Github (github.com/chenyef/PD_ana/blob/main/Behavior_ana.txt).

Consider `C[N+]1([O-])CCN(C2=Nc3cc(Cl)ccc3Nc3ccccc32)CC1` [CNO, Clozapine-N-oxide], for which the “muscle tone, electromyogram recordings” value (following CNO infusions, macaques) is given as “increase in the muscle tone of the contralateral biceps brachii”. For the same compound, under “hM3Dq (intracranial CNO) or rM3Ds (systemic CNO) macaques, n=4, saline 1.004±0.2667”, the “contraversive rotations (FIG. 10C), mean±SEM” value is listed as 6.649±1.662. Further, the “velocity of ipsiversive rotations (FIG. 10H), mean±SEM” value (n=4 macaques, saline 37.43±3.264, not significant) amounted to 41.37±6.566. Also, for the setting “n=4 macaques, saline 38.42±5.465”, the “speed during contraversive rotations (FIG. 10G), mean±SEM” value was 46.98±6.669. Where the note is “n=4 macaques, saline 68.42±10.7”, the “time in the top portion of the observing cage (FIG. 10D), mean±SEM” value was 33.74±2.641. Further, the “total distance (FIG. 10F), mean±SEM” value (n=4 macaques, saline 71.53±15.4, not significant) is listed as 97.37±19.41. The “immobile time (FIG. 10E), mean±SEM” value (n=4 macaques, saline 107.1±2.322, not significant) was determined as 89.13±8.379.
